This note sets out measurements from publication doi:10.1101/2025.08.13.670122v1 (bioRxiv, 2025).

Peptide text beside a SMILES is read from it.

Assay [1] has as its target T1, AT1R (Homo sapiens, UniProt P30556).
T1 sequence (P30556 1-359): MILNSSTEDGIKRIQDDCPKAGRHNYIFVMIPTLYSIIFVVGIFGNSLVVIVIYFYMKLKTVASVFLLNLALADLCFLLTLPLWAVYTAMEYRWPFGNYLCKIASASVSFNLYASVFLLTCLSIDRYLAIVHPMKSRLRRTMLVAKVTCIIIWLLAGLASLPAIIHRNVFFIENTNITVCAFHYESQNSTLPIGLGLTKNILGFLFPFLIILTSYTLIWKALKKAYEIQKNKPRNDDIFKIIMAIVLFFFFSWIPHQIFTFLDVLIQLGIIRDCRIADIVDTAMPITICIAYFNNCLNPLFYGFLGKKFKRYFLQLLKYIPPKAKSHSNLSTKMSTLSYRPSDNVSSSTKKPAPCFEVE
In words: Gαq activation BRET (GABY sensor) in HEK293 cells expressing AT1R. The assay is classed as cell-based. The arrangement: expressed in transfected cells; host or cells: HEK293 cells, transient PEI transfection. The note with it: for Emax Gαq (% AngII): HEK293/AT1R, GABY BRET sensor, response of the ligand at 10 μM, normalised to AngII; for EC50: HEK293 cells transiently expressing human AT1R, Gαq-RlucII/Gβ1/Gγ1-GFP10 (GABY) BRET sensor, BRET read 10 min after ligand, mean ± SEM of at least three to five independent experiments. The source says:
(§1) We utilized a clonal cell line HEK293, referred to hereafter as HEK293 cells, which has been previously described.[7],[8] As a gracious gift from A. Inoue (Tohoku University, Sendai, Miyagi, Japan), CRISPR Gαq/11 and Gα12/13 knockout cell lines (ΔGq/11 and ΔG12/13, respectively), were derived as previously explained.[48] In brief, a CRISPR-Cas9 system was used to target either GNAQ and GNA11 or GNA12 and GNA13 genes in HEK293T cells simultaneously to generate the Gαq/11 and Gα12/13 knockout cell lines. For the production of adenovirus, we utilized HEK293A cells. All cells were grown in DMEM supplemented with 10% FBS and Penicillin-Streptomycin-L-Glutamine (10000 IU penicillin, 10000 µg/mL Streptomycin, 200 mM L-Glutamine) at 37°C in T175 flasks under a 5% CO2 humidified chamber. Periodic testing was carried out for mycoplasma contamination (ABM™, Mycoplasma PCR Detection kit). For all biosensors used, cells underwent transfection with the PEI reagent, employing a PEI:DNA ratio of 3:1. For the Gαq biosensor, HEK293 cells were transfected with the plasmids coding for Gαq-RLucII (120 ng), Gβ1 (3000 ng), Gγ1-GFP10 (3000 ng), human AT1 (3000 ng) and Salmon sperm DNA (SSD) (880 ng). For the β-arrestin2 recruitment assay, HEK293 cells were transfected with the plasmids coding for 120 ng β-arrestin-2-RLucII, 3000 ng AT1, 3000 ng rGFP-CAAX, and 3880 ng SSD. For the measurement of PKC, HEK293 cells were transfected with 3000 ng AT1, 600 ng PKC-c1b, and 6400 ng SSD. […] 100 µL of the cell/DNA mixture was added to white 96-well plates and incubated at 37°C at 5% CO2 for 48 h. For the Rho assay, ΔG12/13 cells were seeded at a density of 9,000 cells per well in poly-ornithine-coated white 96-well plates and transfected the following day. In brief, 1 μg of total DNA in 100 μL of PBS was mixed with 100 μL of PBS containing 3 μL of 1 mg/mL PEI. For Rho signaling, 150 ng of AT1R DNA with 25 ng of PKN-RBD-RlucII [8], and 100 ng of rGFP-CAAX were used. Empty pcDNA was used to reach 1 µg of the total DNA amount in 100 μL of PBS. The DNA was then mixed with 100 μL of PBS containing 3 μL of 1 mg/mL PEI. After a 20-min incubation, the DNA/PEI complexes were dispensed into cells in 96-well plates (15 µL/well), and the experiment was carried out 48 h post-transfection.
(§2) On the day of the experiment, each well was washed with 80 µL of Tyrode’s buffer (140 mM NaCl, 2.7 mM KCl, 1 mM CaCl2, 12 mM NaHCO3, 5.6 mM D-glucose, 0.5 mM MgCl2, 0.37 mM NaH2PO4, 25 mM Hepes (pH 7.4)). This was followed by incubation for 1 h in Tyrode’s buffer at room temperature. For the Gαq, β-arrestin-2, and PKC biosensors used in HEK293 cells, coelenterazine 400A (at a final concentration of 5 μM) was added 10 min before stimulation. Cells were then stimulated with increasing doses of the indicated ligand, and BRET signals were measured using a Tristar2 (Berthold) microplate reader 10 min later. For the PKC and Rho biosensors in VSMCs, and the Rho biosensor in ΔG12/13 cells, cells were similarly stimulated with ligands for 1 min, 1 min 30 s, and 3 min, respectively, before BRET measurement. […] BRET signals were then measured using a Synergy2 (BioTek) microplate reader. The applied filter set was 410/80 nm and 515/30 nm, designed to detect the light emissions of RlucII (Renilla luciferase) (donor) and rGFP (acceptor), respectively.
A general note: In BRET a luciferase serves as donor, and the signal depends on an acceptor being close.

Assay [2] addresses T1, AT1R. In words: β-arrestin2 recruitment BRET (β-arrestin2-RLucII/rGFP-CAAX) in HEK293 cells expressing AT1R. The format is cell-based. Also noted: expressed in transfected cells; host or cells: HEK293 cells, transient PEI transfection. The note with it: for Emax βarr2 (% AngII): HEK293/AT1R, β-arrestin2 BRET, response of the ligand at 10 μM, normalised to AngII; for EC50: HEK293 cells transiently expressing AT1R, β-arrestin2-RLucII/rGFP-CAAX BRET, read 10 min after ligand, mean ± SEM of at least three to five independent experiments, SEM, read-out: EC50 βarr2.
Description: as §1, §2
(In general: Recruitment of arrestin is a read-out of receptor activation apart from second messengers.)

Turning to `CC[C@H](C)[C@H](NC(=O)[C@H](Cc1ccc(O)cc1)NC(=O)[C@@H](NC(=O)[C@H](CCCNC(=N)N)NC(=O)[C@@H](N)CC(=O)O)C(C)C)C(=O)N[C@@H](Cc1c[nH]cn1)C(=O)N1CCC[C@H]1C(=O)N[C@H](C(=O)O)C(c1ccccc1)c1ccccc1` [compound 15], the “Emax Gαq (% AngII)” value at AT1R [1] is 99 % AngII. Also, the EC50 was 7.9 ± 1.7 nM at AT1R [1] (SEM) and 6.7 ± 0.8 nM on AT1R [2]. In addition, the “Emax βarr2 (% AngII)” value at AT1R [2] worked out at 109 % AngII.
As to `CC[C@H](C)[C@H](NC(=O)[C@H](Cc1ccc(O)cc1)NC(=O)[C@@H](NC(=O)[C@H](CCCNC(=N)N)NC(=O)[C@@H](N)CC(=O)O)C(C)C)C(=O)N[C@@H](Cc1c[nH]cn1)C(=O)N1CCC[C@H]1C(=O)N[C@@H](COCc1ccccc1)C(=O)O` [compound 16], at AT1R [1], the “Emax Gαq (% AngII)” value was found to be 26 % AngII and the EC50 was above 10000 nM. Further, the EC50 at AT1R [1] (SEM) worked out at 2.3 ± 4 nM. In addition, on AT1R [2], the “Emax βarr2 (% AngII)” value came out at 87 % AngII and the EC50 is 3 ± 0.5 nM.
With `CC[C@H](C)[C@H](NC(=O)[C@H](Cc1ccc(O)cc1)NC(=O)[C@@H](NC(=O)[C@H](CCCNC(=N)N)NC(=O)[C@@H](N)CC(=O)O)C(C)C)C(=O)N[C@@H](Cc1c[nH]cn1)C(=O)N1CCC[C@H]1C(=O)N[C@@H](Cc1ccncc1)C(=O)O` [compound 17], the “Emax Gαq (% AngII)” value on AT1R [1] is recorded as 37 % AngII. Also, the EC50 at AT1R [1] (SEM) was 7.5 ± 6.3 nM. Moreover, at AT1R [2], the “Emax βarr2 (% AngII)” value worked out at 105 % AngII and the EC50 was 5.2 ± 1 nM.
Consider `CC[C@H](C)[C@H](NC(=O)[C@H](Cc1ccc(O)cc1)NC(=O)[C@@H](NC(=O)[C@H](CCCNC(=N)N)NC(=O)[C@@H](N)CC(=O)O)C(C)C)C(=O)N[C@@H](Cc1c[nH]cn1)C(=O)N1CCC[C@H]1C(=O)N[C@@H](Cc1cccnc1)C(=O)O` [compound 18], for which the “Emax Gαq (% AngII)” value on AT1R [1] worked out at 31 % AngII. In addition, the EC50 at AT1R [1] (SEM) came out at 22 ± 11 nM. Moreover, on AT1R [2], the “Emax βarr2 (% AngII)” value is 90 % AngII and the EC50 worked out at 3.7 ± 0.7 nM.
`CC[C@H](C)[C@H](NC(=O)[C@H](Cc1ccc(O)cc1)NC(=O)[C@@H](NC(=O)[C@H](CCCNC(=N)N)NC(=O)[C@@H](N)CC(=O)O)C(C)C)C(=O)N[C@@H](Cc1c[nH]cn1)C(=O)N1CCC[C@H]1C(=O)N[C@@H](Cc1ccccn1)C(=O)O` [compound 19]: on AT1R [1], the “Emax Gαq (% AngII)” value worked out at 48 % AngII. The EC50 at AT1R [1] (SEM) came out at 6.9 ± 2.6 nM; on AT1R [2], 2.2 ± 0.4 nM. Also, the “Emax βarr2 (% AngII)” value on AT1R [2] worked out at 101 % AngII.
Take `CC[C@H](C)[C@H](NC(=O)[C@H](Cc1ccc(O)cc1)NC(=O)[C@@H](NC(=O)[C@H](CCCNC(=N)N)NC(=O)[C@@H](N)CC(=O)O)C(C)C)C(=O)N[C@@H](Cc1c[nH]cn1)C(=O)N1CCC[C@H]1C(=O)N[C@@H](Cc1cscn1)C(=O)O` [compound 20]: the “Emax Gαq (% AngII)” value at AT1R [1] is on record as 29 % AngII. In addition, the EC50 at AT1R [1] (SEM) was found to be 14 ± 13 nM. Moreover, on AT1R [2], the “Emax βarr2 (% AngII)” value was 97 % AngII and the EC50 was 1.9 ± 0.3 nM.
As for `CC[C@H](C)[C@H](NC(=O)[C@H](Cc1ccc(O)cc1)NC(=O)[C@@H](NC(=O)[C@H](CCCN=C(N)N)NC(=O)[C@@H](N)CC(=O)O)C(C)C)C(=O)N[C@@H](Cc1c[nH]cn1)C(=O)N1CCC[C@H]1C(=O)N[C@@H](Cc1c[nH]c2ccccc12)C(=O)O` [compound 21] (H-DRVYIHPW-OH), the figures for the EC50 at AT1R [1] (SEM) and at AT1R [2] were 4.7 ± 1.1 nM and 2.2 ± 0.4 nM, respectively.
With `CC[C@H](C)[C@H](NC(=O)[C@H](Cc1ccc(O)cc1)NC(=O)[C@@H](NC(=O)[C@H](CCCNC(=N)N)NC(=O)[C@@H](N)CC(=O)O)C(C)C)C(=O)N[C@@H](Cc1c[nH]cn1)C(=O)N1CCC[C@H]1C(=O)N[C@@H](Cc1c[nH]c2ccccc12)C(=O)O` [compound 21] (H-DRVYIHPW-OH; N-terminus assumed), on AT1R [1], the “Emax Gαq (% AngII)” value is given as 91 % AngII. Besides, the “Emax βarr2 (% AngII)” value on AT1R [2] was 107 % AngII.

The term EC50 denotes the concentration that produces a half-maximal response.
